Measured values as given in patent publication US11078222B2, “Hydroxybenzoic acid derivatives, methods and uses thereof” (UNiVERSIDADE DO PORTO, priority 2016, dated 2021).

Assays:
[1] = tested on: rat liver mitochondria (RLM); assay: Mitochondrial respiration of isolated RLM (Clark-type oxygen electrode): RCR, ADP/O; assay type: biochemical; settings: RLM
Description: In an embodiment, and as an example, the toxicity effects of some AntiOxBENs and MitoQ on the mitochondrial bioenergetics, namely on RLM Δψ and respiration parameters, were measured. The Δψ represents the main component of the electrochemical gradient generated by mitochondrial respiration and accounts for more than 90% of the total available energy. For mitochondrial respiration assays, glutamate/malate (for complex I) and succinate (for complex II) were used as substrates. In addition, the mitochondrial oxidative phosphorylation coupling index, known as respiratory control ratio (RCR, state 3/state 4 respiration) and ADP/O index (the coupling between ATP synthesis and oxygen consumption) were also calculated. AntiOxBENs and MitoQ were tested at antioxidant-relevant concentrations, with 10 μM being the highest concentration.
In an embodiment, the evaluation of AntiOxBENs effect on mitochondrial respiration was performed as follows: the respiration of isolated RLM was evaluated polarographically with a Clark-type oxygen electrode, connected to a suitable recorder in a 1 mL thermostated water-jacketed chamber with magnetic stirring, at 37° C. […] Increasing concentrations of AntiOxBENs (2.5-10 μM) were added to the reaction medium containing respiratory substrates glutamate/malate (10 mM and 5 mM respectively) or succinate (5 mM) and RLM (1 mg) and allowed to incubate for a 5 min period prior to the assay. State 2 was considered as the respiration during the 5 min incubation time with AntiOxBENs. […] State 4 was determined after ADP phosphorylation finished. Subsequent addition of oligomycin (2 μg/ml) inhibited ATPsynthase and originated the oligomycin-inhibition respiration state. Finally, 1 μM FCCP was added to induce uncoupled respiration. […] Data are means are means±SEM of seven independent experiments.

[2] = ABTS radical cation scavenging activity; assay type: biochemical; settings: ethanol, 15 min
Description: (§1) The radical scavenging activity of AntiOxClNs was evaluated by means of total antioxidant capacity assays based on DPPH., ABTS.^+ and GO. radicals. All these methods involved the spectrophotometric measurement of the absorbance decrease resulting from radical (DPPH., ABTS.^+ or GO.) deactivation with an antioxidant. The results were expressed in IC50, which is defined as the minimum antioxidant concentration necessary to reduce the amount of radical by 50%. Antioxidant assays were performed in a multiplate reader (Powerwave XS Microplate Reader) from Bio Tech instruments.
In an embodiment, the ABTS.^+ scavenging activity was evaluated as follows: ethanolic solutions of the test compounds with increasing concentrations (range between 10 μM and 500 μM) were prepared. ABTS. radical cation solution was obtained by addition of 150 mM aqueous potassium persulfate solution (163 μL) to 10 mL of 7 mM aqueous ABTS solution followed by storage in the dark at room temperature for 16 h (2.45 mM final concentration). The solution was then diluted in ethanol to reach the absorbance of 0.72±0.02. After addition of the compound (20 μL), in triplicate, to ABTS.^+ solution (180 μL) the spectrophotometric measurement was carried out each minute over 15 minutes. […] Dose-response curves were established for the determination of IC50 values.

[3] = tested on: human hepatocellular carcinoma cells (HepG2); assay: Cytotoxicity, SRB method; assay type: cell-based
Description: In an embodiment, and as an example, the cytotoxicity of AntiOxBENs was assessed using monolayer cultures of human hepatocytes from hepatocellular carcinoma (HepG2) and SRB method (FIG. 8).
In an embodiment, the cytotoxicity profile of AntiOxBENs was evaluated in human hepatocellular carcinoma HepG2 cells. Human hepatocellular carcinoma HepG2 cells were cultured in high-glucose medium composed by Dulbecco's modified Eagle's medium (DMEM; D5648) supplemented with sodium pyruvate (0.11 g/L), sodium bicarbonate (1.8 g/L) and 10% fetal bovine serum (FBS) and 1% of antibiotic penicillin-streptomycin 100× solution. Cells were maintained at 37° C. in a humidified incubator with 5% CO2. HepG2 cells were seeded at density of 4×10^4 cells/mL and grown for 24 hours before treatment.
In an embodiment the cytotoxicity screening was performed as follows: cells were placed on 48-well plate (2×10^4 cells/500 μL) and then were incubated during 48 hour with AntiOxBENs concentrations ranging 25 μM to 500 μM. After incubation, sulforhodamine B (SRB) assay was used for cell density determination based on the measurement of cellular protein content. Briefly, after incubation, the medium was removed and wells rinsed with PBS […]. Cells were fixed by adding 1% acetic acid in 100% methanol for at least 2 hours at −20° C. Later, the fixation solution was discarded and the plates were dried in an oven at 37° C. Two hundred and fifty microliters of 0.5% SRB in 1% acetic acid solution was added and incubated at 37° C. for 1 h. The wells were then washed with 1% acetic acid in water and dried. Then, 500 μl of Tris (pH 10) was added and the plates were stirred for 15 min. Finally, 200 μl of each supernatant was transferred in 96-well plates and optical density was measured at 540 nm. Data are means±SEM of four independent experiments and the results are expressed as percentage of control (control=100%), which represents the cell density without any treatment in the respective time point.

[4] = DPPH radical scavenging activity (total antioxidant capacity); assay type: biochemical; settings: ethanol, 515 nm, 45 min
Description: as §1
A DPPH ethanolic solution (6.85 mM) was also prepared and then diluted to reach the absorbance of 0.72±0.02 at 515 nm. Each compound solution (20 μL) was added to 180 μL of DPPH. solution in triplicate, and the absorbance at 515 nm was recorded minutely over 45 minutes. […] Dose-response curves were established for the determination of IC50 values.

[5] = tested on: rat liver mitochondria (RLM) membranes; assay: RLM lipid peroxidation, TBARS assay (FeSO4/H2O2/ascorbate); settings: 5 μM, FeSO4/H2O2/ascorbate
[6] = GO radical scavenging activity; assay type: biochemical; settings: ethanol, 428 nm, 30 min
Description: The selected total antioxidant capacity (TAC) assays (DPPH, ABTS and GO) involved the spectrophotometric measurement of the radical absorbance decrease as a result of an in situ radical deactivation by an antioxidant.
as §1
In an embodiment, the GO. scavenging activity was evaluated as follows: solutions of test compounds with concentrations from 10 μM to 100 μM were prepared in ethanol. An ethanolic solution of 5 mM GO. was prepared and diluted to reach the absorbance of 1.00±0.02 at 428 nm. The addition (20 μL) in triplicate of compound solution to GO. solution (180 μL) was followed by absorbance measurement at 428 nm over 30 minutes, in the dark, at room temperature. […] Dose-response curves were established for the determination of IC50 values.

[7] = tested on: rat liver mitochondria (RLM); assay: Mitochondrial uptake by energised RLM, TPP-selective electrode; assay type: in vitro ADME
Description: In an embodiment, and as an example, the mitochondrial uptake of some AntiOxBENs was assessed in isolated rat liver mitochondria (RLM) in response to the membrane potential. AntiOxBENs can accumulate inside mitochondria driven by the Δψ (FIG. 3A). Different AntiOxBENs accumulation outlines within the mitochondrial matrix have been measured. […] The following ranking order was attained: AntiOxBEN2<AntiOxBEN1<AntiOxBEN3.
In an embodiment, the AntiOxBENs mitochondria uptake by energized RLM was evaluated as follows: RLM (0.5 mg protein/mL) were incubated with AntiOxBENs at 37° C. under constant stirring in 1 mL of KCl medium (120 mM KCl, 10 mM HEPES, pH 7.2 and 1 mM EGTA). Five sequential 1 μM additions of each AntiOxBENs were performed to calibrate the electrode response in the presence of rotenone (1.5 μM). Then, succinate (10 mM) was added to generate […]. Valinomicin (0.2 μg/mL) was added at the end of the assay to dissipate Δψ. The measurements were performed with an ion-selective electrode, which measure the distribution of tetraphenylphosphonium cation (TPP+) and Ag/AgCl2 electrode as reference. The mitochondrial accumulation ratio was calculated by the disappearance of AntiOxBENs from extra- to intramitochondrial medium assuming an intramitochondrial volume of 0.5 μL/mg protein and a binding correction for the mitochondrial uptake of TPP compounds.

| SMILES | ADP/O ([1]; Glutamate/Malate, 2.5 μM) | RCR ([1]; Glutamate/Malate, 2.5 μM) | ADP/O ([1]; Glutamate/Malate, 5 μM) | RCR ([1]; Glutamate/Malate, 5 μM) | ADP/O ([1]; Glutamate/Malate, 10 μM) | RCR ([1]; Glutamate/Malate, 10 μM) | ADP/O ([1]; Succinate, 2.5 μM) | RCR ([1]; Succinate, 2.5 μM) | ADP/O ([1]; Succinate, 5 μM) | RCR ([1]; Succinate, 5 μM) | ADP/O ([1]; Succinate, 10 μM) | RCR ([1]; Succinate, 10 μM) | IC50 [2] [µM] | concentrations at which cell proliferation was stimulated ([3]; HepG2, 48 hour, SRB) | IC50 [4] [µM] | prevention of TBARS formation / mitochondria lipid peroxidation [5] | IC50 [6] [µM] | accumulation ratio by rat liver mitochondria ([7]; energised RLM, succinate) | other results |
| --- | --- | --- | --- | --- | --- | --- | --- | --- | --- | --- | --- | --- | --- | --- | --- | --- | --- | --- | --- |
| O=C(NCCCCCC[P+](c1ccccc1)(c1ccccc1)c1ccccc1)c1cc(O)c(O)c(O)c1.[Br-] [AntiOxBEN2, 6-(3,4,5-trihydroxybenzamido)hexyltriphenylphosphonium bromide] | 2.3 ± 0.3 | 4.3 ± 0.6 | 2.3 ± 0.2 | 3.9 ± 0.5 | 2.1 ± 0.2 | 2.9 ± 0.3 | 1.7 ± 0.1 | 5.2 ± 0.9 | 1.7 ± 0.1 | 3.8 ± 0.4 | 1.6 ± 0.04 | 3.5 ± 0.3 | 10.3 | lower than 250 μM | 18.3 | most effective | 3 | AntiOxBEN2<AntiOxBEN1<AntiOxBEN3 |  |
| O=C(CCCCC[P+](c1ccccc1)(c1ccccc1)c1ccccc1)NCCCCCCNC(=O)c1cc(O)c(O)c(O)c1.[Br-] [AntiOxBEN3, [5-(6-(3,4,5-trihydroxybenzamido)hexylamino)carbonylpentyl]triphenylphosphonium bromide] | 2.3 ± 0.2 | 3.9 ± 0.5 | 2.3 ± 0.1 | 3.9 ± 0.6 | 2.0 ± 0.2 | 3.07 ± 0.6 | 1.6 ± 0.1 | 4.1 ± 0.5 | 1.6 ± 0.1 | 4.3 ± 0.7 | 1.7 ± 0.1 | 3.9 ± 0.4 | 9.6 |  | 18.7 | most effective | 3.4 |  | concentrations at which cell proliferation was significantly inhibited ([3]; human, 48 h): higher than 250 μM; accumulation ratio by rat liver mitochondria ([7]; rat, 5 μM, pH 7.2): AntiOxBEN2<AntiOxBEN1<AntiOxBEN3 |
| O=C(NCCCCCC[P+](c1ccccc1)(c1ccccc1)c1ccccc1)c1ccc(O)c(O)c1.[Br-] [AntiOxBEN1, 6-(3,4-dihydroxybenzamido)hexyltriphenylphosphonium bromide] | 2.5 ± 0.2 | 4.9 ± 0.6 | 2.8 ± 0.4 | 4.4 ± 0.6 | 2.1 ± 0.1 | 2.6 ± 0.1 | 1.7 ± 0.03 | 4.7 ± 0.3 | 1.6 ± 0.1 | 3.0 ± 0.3 | 1.5 ± 0.1 | 2.8 ± 0.3 | 29.9 | higher than 100 μM | 27.3 | not effective | 4.3 | AntiOxBEN2<AntiOxBEN1<AntiOxBEN3 | toxicity / effect on HepG2 cell proliferation ([3]; HepG2, 48 hour, 25 μM to 500 μM, SRB): small inhibition of cell proliferation for lower concentrations |
